According to ChEMBL document CHEMBL5385860, “Antiproliferative, antiangiogenic and apoptotic effect of new hybrids of quinazoline-4(3H)-ones and sulfachloropyridazine” (Eur J Med Chem, 2023):

Key:
UO-31 [1] = type: functional, Homo sapiens; details: dose 3.61 µM; time 24 hrs
UO-31 [2] = test: Induction of apoptosis in human UO-31 cells assessed as fold increase in Bax protein level by ELISA relative to control; type: functional
UO-31 [3] = test: Induction of apoptosis in human UO-31 cells assessed as Bcl-2 protein level by ELISA (reference value: 12.19 +/- 0.64 ng/ml); type: functional
UO-31 [4] = test: Induction of apoptosis in human UO-31 cells assessed as fold decrease in Bcl-2 protein level by ELISA relative to control; type: functional
UO-31 [5] = test: Induction of cell cycle arrest in human UO-31 cells assessed as cell aggregates at 3.61 uM measured after 24 hrs by PI staining based flow cytometry analysis (reference value: 1.82%); type: functional
UO-31 [6] = test: Induction of cell cycle arrest in human UO-31 cells assessed as cell debris at 3.61 uM measured after 24 hrs by PI staining based flow cytometry analysis (reference value: 2.19%); type: functional
M14 [7] = test: cells; details: Homo sapiens, M14, light or radiation study
[8] = Cytotoxicity against human RPTEC cells assessed as inhibition of cell growth incubated for 24 hrs by MTT assay; type: toxicity, cell-based
SNB-75 [9] = test: cells; details: Homo sapiens, SNB-75, 24 h
UO-31 [10] = test: Induction of cell cycle arrest in human UO-31 cells assessed as accumulation of cells in G2/M phase at 3.61 uM measured after 24 hrs by PI staining based flow cytometry analysis (reference value: 14.32%); type: functional
UO-31 [11] = test: cells; details: Homo sapiens, UO-31, 24 h
UO-31 [12] = test: cells; details: Homo sapiens, UO-31, light or radiation study
UO-31 [13] = test: Induction of cell cycle arrest in human UO-31 cells assessed as accumulation of cells in G0-G1 phase at 3.61 uM measured after 24 hrs by PI staining based flow cytometry analysis (reference value: 49.26%); type: functional
UO-31 [14] = test: Induction of apoptosis in human UO-31 cells assessed as early apoptotic cells at IC50 by Annexin V-FITC/PI staining based flow cytometry analysis (reference value: 0.61%); type: functional
UO-31 [15] = test: Induction of apoptosis in human UO-31 cells assessed as Bax protein level by ELISA (reference value: 70.11 +/- 7.45 pg/ml); type: functional
UO-31 [16] = test: Induction of cell cycle arrest in human UO-31 cells assessed as accumulation of cells in S phase at 3.61 uM measured after 24 hrs by PI staining based flow cytometry analysis (reference value: 36.42%); type: functional
UO-31 [17] = test: Induction of apoptosis in human UO-31 cells assessed as necrotic cells at IC50 by Annexin V-FITC/PI staining based flow cytometry analysis (reference value: 1.19%); type: functional
UO-31 [18] = test: Induction of apoptosis in human UO-31 cells assessed as late apoptotic cells at IC50 by Annexin V-FITC/PI staining based flow cytometry analysis (reference value: […]); type: functional
UO-31 [19] = test: Induction of apoptosis in human UO-31 cells assessed as increase in caspase-3 level by measuring optical density by Western blot densitometry analysis (reference value: 0.095); type: functional
M14 [20] = test: cells; details: Homo sapiens, M14, 24 h
HCT-116 = test: cells; details: Homo sapiens, HCT-116, 24 h
T47D = test: Cytotoxicity against human T47D cells assessed as growth inhibition at 10 uM relative to control; type: functional; details: read-out: GI
RPMI-8226 = test: Cytotoxicity against human RPMI-8226 cells assessed as growth inhibition at 10 uM relative to control; type: functional; details: read-out: GI
Hs-578T = test: Cytotoxicity against human Hs-578T cells assessed as growth inhibition at 10 uM relative to control; type: functional; details: read-out: GI
HT-29 = test: Cytotoxicity against human HT-29 cells assessed as growth inhibition at 10 uM relative to control; type: functional; details: read-out: GI
HOP-92 = test: Cytotoxicity against human HOP-92 cells assessed as growth inhibition at 10 uM relative to control; type: functional; details: read-out: GI
MDA-MB-468 = test: Cytotoxicity against human MDA-MB-468 cells assessed as growth inhibition at 10 uM relative to control; type: functional; details: read-out: GI
BT-549 = test: Cytotoxicity against human BT-549 cells assessed as growth inhibition at 10 uM relative to control; type: functional; details: read-out: GI
EKVX = test: Cytotoxicity against human EKVX cells assessed as growth inhibition at 10 uM relative to control; type: functional; details: read-out: GI
SR = test: Cytotoxicity against human SR cells assessed as growth inhibition at 10 uM relative to control; type: functional; details: read-out: GI
A498 = test: Cytotoxicity against human A498 cells assessed as growth inhibition at 10 uM relative to control; type: functional; details: read-out: GI
LOX IMVI = test: Cytotoxicity against human LOX IMVI cells assessed as growth inhibition at 10 uM relative to control; type: functional; details: read-out: GI
MOLT-4 = test: Cytotoxicity against human MOLT-4 cells assessed as growth inhibition at 10 uM relative to control; type: functional; details: read-out: GI
CCRF-CEM = test: Cytotoxicity against human CCRF-CEM cells assessed as growth inhibition at 10 uM relative to control; type: functional; details: read-out: GI
SF-268 = test: Cytotoxicity against human SF-268 cells assessed as growth inhibition at 10 uM relative to control; type: functional; details: read-out: GI
SK-OV-3 = test: Cytotoxicity against human SK-OV-3 cells assessed as growth inhibition at 10 uM relative to control; type: functional; details: read-out: GI
MCF7 = test: Cytotoxicity against human MCF7 cells assessed as growth inhibition at 10 uM relative to control; type: functional; details: read-out: GI
K562 = test: Cytotoxicity against human K562 cells assessed as growth inhibition at 10 uM relative to control; type: functional; details: read-out: GI
UACC-62 = test: Cytotoxicity against human UACC-62 cells assessed as growth inhibition at 10 uM relative to control; type: functional; details: read-out: GI
IGROV-1 = test: Cytotoxicity against human IGROV-1 cells assessed as growth inhibition at 10 uM relative to control; type: functional; details: read-out: GI
MDA-MB-231 = test: Cytotoxicity against human MDA-MB-231 cells assessed as growth inhibition at 10 uM relative to control; type: functional; details: read-out: GI
UO-31 [21] = test: Cytotoxicity against human UO-31 cells assessed as growth inhibition at 10 uM relative to control; type: functional; details: read-out: GI
NCI-H522 = test: Cytotoxicity against human NCI-H522 cells assessed as growth inhibition at 10 uM relative to control; type: functional; details: read-out: GI
KM12 = test: Cytotoxicity against human KM12 cells assessed as growth inhibition at 10 uM relative to control; type: functional; details: read-out: GI
786-0 = test: Cytotoxicity against human 786-0 cells assessed as growth inhibition at 10 uM relative to control; type: functional; details: read-out: GI
[22] = Inhibition of PDGFR (unknown origin) incubated for 60 mins in presence of ATP by ADP-Glo kinase assay; design: species or system Homo sapiens
[23] = target: Vascular endothelial growth factor A, long form (Homo sapiens) (UniProt P15692); test: Inhibition of VEGF-mediated cell migration in HUVEC cells assessed as wound closure at 10 ug/ml measured after 72 hrs by scratch-wound healing assay; type: cell-based; design: scale not given: the % may be the effect or the level left; details: dose 10.0 µg/ml
Chain of Vascular endothelial growth factor A, long form (Homo sapiens) (P15692 whole entry): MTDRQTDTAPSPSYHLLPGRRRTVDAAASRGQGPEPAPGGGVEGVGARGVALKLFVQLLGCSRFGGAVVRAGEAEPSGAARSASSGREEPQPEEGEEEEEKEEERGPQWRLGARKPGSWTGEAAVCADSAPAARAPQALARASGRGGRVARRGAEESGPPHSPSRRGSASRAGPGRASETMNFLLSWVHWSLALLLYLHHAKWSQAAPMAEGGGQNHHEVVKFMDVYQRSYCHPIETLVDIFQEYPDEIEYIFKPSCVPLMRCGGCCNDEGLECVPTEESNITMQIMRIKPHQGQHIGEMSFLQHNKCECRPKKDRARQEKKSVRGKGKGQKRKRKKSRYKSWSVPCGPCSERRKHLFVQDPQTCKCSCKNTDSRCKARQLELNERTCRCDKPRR

UO-31 [24] = test: Induction of cell cycle arrest in human UO-31 cells assessed as cell aggregates at 1.67 uM measured after 24 hrs by PI staining based flow cytometry analysis (reference value: 1.82%); type: functional
RXF 393 = test: Cytotoxicity against human RXF 393 cells assessed as growth inhibition at 10 uM relative to control; type: functional; details: read-out: GI
CAKI-1 = test: Cytotoxicity against human CAKI-1 cells assessed as growth inhibition at 10 uM relative to control; type: functional; details: read-out: GI
SNB-75 [25] = test: Cytotoxicity against human SNB-75 cells assessed as growth inhibition at 10 uM relative to control; type: functional; details: read-out: GI
A549 = test: Cytotoxicity against human A549 cells assessed as growth inhibition at 10 uM relative to control; type: functional; details: read-out: GI

IC50 (UO-31 [11]) [µM] | IC50 (UO-31 [12]) [µM] | SMILES | Activity (UO-31 [3]) [ng/mL] | Activity (UO-31 [14]) [%] | Activity (UO-31 [15]) [pg/mL] | Activity (UO-31 [17]) [%] | Activity (UO-31 [18]) [%] | inhibition of growth at 10 µM (T47D) [%] | inhibition of growth at 10 µM (RPMI-8226) [%] | inhibition of growth at 10 µM (MDA-MB-468) [%] | inhibition of growth at 10 µM (SR) [%] | inhibition of growth at 10 µM (A498) [%] | inhibition of growth at 10 µM (MOLT-4) [%] | inhibition of growth at 10 µM (MCF7) [%] | inhibition of growth at 10 µM (UACC-62) [%] | inhibition of growth at 10 µM (UO-31 [21]) [%] | inhibition of growth at 10 µM (NCI-H522) [%] | inhibition of growth at 10 µM (786-0) [%] | also measured
3.61 | 3.01 | COc1cccc2c1C(=O)c1c(O)c3c(c(O)c1C2=O)C[C@@](O)(C(=O)CO)C[C@@H]3O[C@H]1C[C@H](N)[C@H](O)[C@H](C)O1 [DOXORUBICIN] | 4.396 | 14.13 | 392.1 | 11.03 | 26.5 | – | – | – | – | – | – | – | – | – | – | – | Activity (UO-31 [1]): 51.66%; fold change (FC) (UO-31 [2]): 5.59; fold change (FC) (UO-31 [4]): 0.36; Activity (UO-31 [5]): 2.13%; Activity (UO-31 [6]): 1.66%; IC50 (M14 [7]): 2.13 µM; IC50 at 24 h [8]: 12.5 µM; IC50 (SNB-75 [9]): 5.82 µM; Activity (UO-31 [10]): 7.91%; Activity (UO-31 [13]): 43.47%; Activity (UO-31 [16]): 48.62%; OD (UO-31 [19]): 0.844; IC50 (M14 [20]): 5.11 µM; IC50 (HCT-116): 0.49 µM
3.14 | 3.49 | O=C(CSc1nc2ccccc2c(=O)n1-c1ccc(S(=O)(=O)Nc2ccc(Cl)nn2)cc1)NCCc1ccccc1 | – | – | – | – | – | 27 | 11 | 10 | 21 | 37 | 20 | 24 | 20 | 29 | 22 | 16 | inhibition of growth at 10 µM (Hs-578T): 23%; inhibition of growth at 10 µM (HT-29): 11%; inhibition of growth at 10 µM (HOP-92): 12%; inhibition of growth at 10 µM (BT-549): 10%; inhibition of growth at 10 µM (EKVX): 24%; inhibition of growth at 10 µM (LOX IMVI): 14%; inhibition of growth at 10 µM (CCRF-CEM): 14%; inhibition of growth at 10 µM (SF-268): 13%; inhibition of growth at 10 µM (SK-OV-3): 20%; inhibition of growth at 10 µM (K562): 11%; inhibition of growth at 10 µM (IGROV-1): 15%; inhibition of growth at 10 µM (MDA-MB-231): 20%; inhibition of growth at 10 µM (KM12): 14%
– | – | CNC(=O)c1cc(Oc2ccc(NC(=O)Nc3ccc(Cl)c(C(F)(F)F)c3)cc2)ccn1 [SORAFENIB] | 3.898 | 19.42 | 409.2 | 4.72 | 31.17 | – | – | – | – | – | – | – | – | – | – | – | IC50 [22]: 0.04 µM; Activity [23]: 46.7%; Activity (UO-31 [24]): 1.47%
– | – | O=C(CSc1nc2ccccc2c(=O)n1-c1ccc(S(=O)(=O)Nc2ccc(Cl)nn2)cc1)NCc1ccccc1 | – | – | – | – | – | 24 | 21 | 16 | 12 | 18 | 12 | 11 | 18 | 12 | 14 | 10 | inhibition of growth at 10 µM (RXF 393): 18%; inhibition of growth at 10 µM (CAKI-1): 14%; inhibition of growth at 10 µM (SNB-75 [25]): 12%; inhibition of growth at 10 µM (A549): 11%
